# Source: ChEMBL document CHEMBL1201862, “PubChem BioAssay data set” (2004)
# Active and inactive are the calls of the source.
# What was measured:
# [1] = target: T1, Polyadenylate-binding protein 1 (Homo sapiens, UniProt P11940); assay: PABP1 MLLE–PAM2 binding inhibitor potency, dose response, biochemical, fluorescence polarization, FITC-PAM2 peptide (AID 602259); format: functional; conditions: read-out: IC50_Mean
# [2] = target: T1, Polyadenylate-binding protein 1; assay: PABP1 MLLE–PAM2 interaction inhibitors, dose response, miRNA deadenylation inhibitor project, biochemical, fluorescence polarization, Cy5-PAM2 peptide, secondary (AID 602260); format: functional; conditions: read-out: IC50_Mean
# [3] = A Cell Based Secondary Assay To Explore Cytotoxicity of Compounds that Sensitize Mycobacterium Tuberculosis to Beta-Lactam Antibiotics.; format: functional
# [4] = target: Peroxisome proliferator-activated receptor gamma/Nuclear receptor coactivator 2 (Homo sapiens, UniProt P37231); format: functional;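 further: agonist potency for raising coactivator recruitment to the receptor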
# [5] = target: Peroxisome proliferator-activated receptor gamma/Nuclear receptor coactivator 1 (Homo sapiens, UniProt P37231); format: functional;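 further: agonist potency as compounds enhance coactivator SRC-1 recruitment to PPARgamma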
# [6] = target: Peroxisome proliferator-activated receptor gamma/Nuclear receptor coactivator 3 (Homo sapiens, UniProt P37231); format: functional;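 further: agonist potency for raising coactivator recruitment to the receptor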
# Sequence of Peroxisome proliferator-activated receptor gamma/Nuclear receptor coactivator 3 (P37231 whole entry): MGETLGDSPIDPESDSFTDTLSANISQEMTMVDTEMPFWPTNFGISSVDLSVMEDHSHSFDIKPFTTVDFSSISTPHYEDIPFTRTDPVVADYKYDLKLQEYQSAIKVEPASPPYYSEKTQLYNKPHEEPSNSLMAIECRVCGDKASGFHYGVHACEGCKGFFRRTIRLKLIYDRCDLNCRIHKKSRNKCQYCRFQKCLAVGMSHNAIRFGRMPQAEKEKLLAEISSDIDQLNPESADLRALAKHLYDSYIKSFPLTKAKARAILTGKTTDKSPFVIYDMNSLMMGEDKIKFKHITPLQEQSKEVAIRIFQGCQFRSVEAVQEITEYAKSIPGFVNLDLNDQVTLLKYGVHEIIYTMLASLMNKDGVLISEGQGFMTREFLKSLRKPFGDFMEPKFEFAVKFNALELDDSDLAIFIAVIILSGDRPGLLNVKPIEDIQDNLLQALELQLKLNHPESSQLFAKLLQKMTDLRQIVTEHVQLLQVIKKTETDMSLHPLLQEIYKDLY
# Sequence of Peroxisome proliferator-activated receptor gamma/Nuclear receptor coactivator 3 (Q9Y6Q9 whole entry, further chain): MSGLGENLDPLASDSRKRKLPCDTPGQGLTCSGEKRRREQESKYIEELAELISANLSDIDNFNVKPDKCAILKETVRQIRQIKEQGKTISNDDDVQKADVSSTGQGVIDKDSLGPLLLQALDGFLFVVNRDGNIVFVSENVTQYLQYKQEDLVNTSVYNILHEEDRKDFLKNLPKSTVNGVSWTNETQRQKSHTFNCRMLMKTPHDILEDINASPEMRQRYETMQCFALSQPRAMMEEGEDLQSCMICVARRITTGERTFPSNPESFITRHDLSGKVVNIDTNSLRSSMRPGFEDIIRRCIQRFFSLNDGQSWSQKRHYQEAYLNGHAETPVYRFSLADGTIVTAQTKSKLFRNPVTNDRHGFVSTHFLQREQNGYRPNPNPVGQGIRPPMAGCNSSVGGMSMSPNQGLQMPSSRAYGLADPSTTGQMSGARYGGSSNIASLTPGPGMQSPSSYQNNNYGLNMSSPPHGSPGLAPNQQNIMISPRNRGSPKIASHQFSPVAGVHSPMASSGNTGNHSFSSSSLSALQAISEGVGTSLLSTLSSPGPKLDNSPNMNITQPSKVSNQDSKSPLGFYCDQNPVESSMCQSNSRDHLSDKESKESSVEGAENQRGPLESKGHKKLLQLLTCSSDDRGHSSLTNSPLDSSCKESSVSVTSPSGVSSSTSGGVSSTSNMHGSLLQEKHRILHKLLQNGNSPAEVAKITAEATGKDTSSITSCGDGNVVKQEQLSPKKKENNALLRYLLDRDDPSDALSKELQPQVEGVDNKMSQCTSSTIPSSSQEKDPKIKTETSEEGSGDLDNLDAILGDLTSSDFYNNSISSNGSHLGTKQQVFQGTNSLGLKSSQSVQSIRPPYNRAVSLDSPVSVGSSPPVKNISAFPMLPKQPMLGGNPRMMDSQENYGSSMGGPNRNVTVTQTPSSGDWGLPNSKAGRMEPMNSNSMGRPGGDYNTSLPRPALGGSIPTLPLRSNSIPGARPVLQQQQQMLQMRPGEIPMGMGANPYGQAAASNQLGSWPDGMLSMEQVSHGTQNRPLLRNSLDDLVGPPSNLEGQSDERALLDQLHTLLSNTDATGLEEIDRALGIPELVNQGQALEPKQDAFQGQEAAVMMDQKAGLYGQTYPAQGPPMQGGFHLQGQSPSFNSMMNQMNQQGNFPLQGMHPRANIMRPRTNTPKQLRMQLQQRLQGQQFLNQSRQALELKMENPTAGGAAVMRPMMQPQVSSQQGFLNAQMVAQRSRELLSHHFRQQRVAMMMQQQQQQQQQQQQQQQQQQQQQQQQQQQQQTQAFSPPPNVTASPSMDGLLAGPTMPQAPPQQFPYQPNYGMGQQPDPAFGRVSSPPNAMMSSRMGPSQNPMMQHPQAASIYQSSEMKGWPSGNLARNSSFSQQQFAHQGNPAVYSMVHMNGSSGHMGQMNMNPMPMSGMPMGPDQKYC
# [7] = target: Transitional endoplasmic reticulum ATPase (Homo sapiens, UniProt P55072, C522A); assay: C522A mutant p97 ATPase inhibitors, dose response, counter-screen for p97 inhibitor project, biochemical, luminescence (AID 1544)
# Sequence of Transitional endoplasmic reticulum ATPase (Homo sapiens, UniProt P55072, C522A) (P55072 2-806 C522A limits assumed): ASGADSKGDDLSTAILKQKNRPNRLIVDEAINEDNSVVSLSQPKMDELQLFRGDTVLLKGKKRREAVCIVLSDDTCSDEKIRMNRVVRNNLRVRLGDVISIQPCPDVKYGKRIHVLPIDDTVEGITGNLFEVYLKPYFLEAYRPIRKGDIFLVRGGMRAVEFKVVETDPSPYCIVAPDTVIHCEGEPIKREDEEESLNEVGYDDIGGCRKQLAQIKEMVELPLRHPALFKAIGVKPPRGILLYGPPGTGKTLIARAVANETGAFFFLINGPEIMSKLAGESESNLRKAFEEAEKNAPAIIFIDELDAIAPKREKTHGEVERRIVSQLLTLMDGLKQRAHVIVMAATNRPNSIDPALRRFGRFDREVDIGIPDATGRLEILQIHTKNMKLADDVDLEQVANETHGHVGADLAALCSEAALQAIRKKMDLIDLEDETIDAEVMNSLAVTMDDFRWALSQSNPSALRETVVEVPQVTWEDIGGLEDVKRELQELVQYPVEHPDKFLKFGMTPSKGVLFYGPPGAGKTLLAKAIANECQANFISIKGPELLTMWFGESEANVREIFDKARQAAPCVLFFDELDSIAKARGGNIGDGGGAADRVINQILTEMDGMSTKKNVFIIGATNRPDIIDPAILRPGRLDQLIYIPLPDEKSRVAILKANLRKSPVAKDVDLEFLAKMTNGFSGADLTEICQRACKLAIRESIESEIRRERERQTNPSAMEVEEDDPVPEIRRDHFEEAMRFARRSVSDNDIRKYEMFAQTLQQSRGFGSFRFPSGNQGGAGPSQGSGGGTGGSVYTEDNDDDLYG
# [8] = target: Transitional endoplasmic reticulum ATPase (Homo sapiens, UniProt P55072); assay: p97 ATPase inhibitors, dose response, biochemical (AID 1534)
# Sequence of Transitional endoplasmic reticulum ATPase (Homo sapiens, UniProt P55072) (P55072 whole entry): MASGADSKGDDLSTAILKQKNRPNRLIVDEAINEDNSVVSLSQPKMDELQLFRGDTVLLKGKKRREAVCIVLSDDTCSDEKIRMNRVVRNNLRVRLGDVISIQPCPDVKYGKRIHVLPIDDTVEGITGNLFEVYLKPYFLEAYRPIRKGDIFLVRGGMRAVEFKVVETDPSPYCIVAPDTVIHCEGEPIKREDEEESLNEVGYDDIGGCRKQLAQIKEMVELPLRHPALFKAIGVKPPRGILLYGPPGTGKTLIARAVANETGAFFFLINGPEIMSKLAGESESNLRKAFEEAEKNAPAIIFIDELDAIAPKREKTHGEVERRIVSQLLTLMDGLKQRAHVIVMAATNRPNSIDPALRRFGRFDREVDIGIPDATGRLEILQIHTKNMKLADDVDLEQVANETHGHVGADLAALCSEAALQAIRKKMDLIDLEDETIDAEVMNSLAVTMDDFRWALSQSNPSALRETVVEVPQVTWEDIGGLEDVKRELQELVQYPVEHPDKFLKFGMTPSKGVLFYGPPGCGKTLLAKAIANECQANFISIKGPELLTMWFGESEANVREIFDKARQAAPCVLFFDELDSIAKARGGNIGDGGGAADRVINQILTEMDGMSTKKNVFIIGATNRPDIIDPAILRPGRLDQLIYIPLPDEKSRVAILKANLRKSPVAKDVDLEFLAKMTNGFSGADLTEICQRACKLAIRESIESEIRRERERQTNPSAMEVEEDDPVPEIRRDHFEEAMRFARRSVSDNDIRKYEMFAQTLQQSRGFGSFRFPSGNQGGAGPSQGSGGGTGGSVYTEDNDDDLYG
# [9] = target: T2, Microphthalmia-associated transcription factor (Homo sapiens, UniProt O75030); assay: TRPM1 promoter luciferase signal decrease, dose response, MITF inhibitor project, cell-based, SK-MEL-5, cherry-picked, set 3 (AID 493073); format: functional
# T2 sequence (O75030 whole entry): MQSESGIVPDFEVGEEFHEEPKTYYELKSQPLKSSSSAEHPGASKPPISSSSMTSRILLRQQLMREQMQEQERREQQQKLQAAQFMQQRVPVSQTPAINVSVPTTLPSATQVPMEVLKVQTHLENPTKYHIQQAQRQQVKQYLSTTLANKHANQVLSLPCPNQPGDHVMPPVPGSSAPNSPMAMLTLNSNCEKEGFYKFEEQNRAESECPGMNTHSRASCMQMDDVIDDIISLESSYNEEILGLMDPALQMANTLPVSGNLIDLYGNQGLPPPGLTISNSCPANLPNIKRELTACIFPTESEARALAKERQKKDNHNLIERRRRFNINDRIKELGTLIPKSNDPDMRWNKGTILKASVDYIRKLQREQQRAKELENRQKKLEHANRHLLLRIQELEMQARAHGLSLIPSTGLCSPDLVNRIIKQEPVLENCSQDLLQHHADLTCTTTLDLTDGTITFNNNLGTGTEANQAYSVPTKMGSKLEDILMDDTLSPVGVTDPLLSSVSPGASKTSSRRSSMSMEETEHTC
# [10] = NIH-3T3 fibroblast cytotoxicity, dose response, cytotoxicity control, cell-based, fluorescence, Alamar Blue, secondary assay (AID 2327); format: functional;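 further: NIH-3T3 mouse fibroblasts cultured with fluconazole at 8 µg/mL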
# [11] = C. albicans growth with fluconazole, confirmation, fluorescence, retest (AID 2467); format: functional, cell-based
# [12] = enhancers of respiration in Yfh1-depleted yeast, dose response, Friedreich's ataxia, plus single-dose screen (AID 1465); format: functional;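 further: yeast depleted of Yfh1p frataxin homolog grown on glycerol needing respiration; WST-1 tetrazolium dye reduction as measure of cellular dehydrogenase metabolic activity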
# [13] = Luminescence Cell-Based Dose Confirmation HTS to Identify Activators of 5'UTR Stem-Loop Driven Alpha-Synuclein mRNA Translation in H4 Neuroglioblastoma Cells. [Related pubchem assays: 1829 (Project Summary), 1814 (Primary HTS)]; format: functional
# [14] = Luminescence Cell-Based Dose Response HTS to Identify Activators of Luciferase Translation or Activity in H4 […] Cells. [Related pubchem assays: 1829 (Project Summary), 1814 (Primary HTS)]; format: functional
# H4 = assay: Luminescence Cell-Based Dose Response HTS to Identify Activators of 5'UTR Stem-Loop Driven Prion Protein mRNA Translation in H4 Neuroglioblastoma Cells. [Related pubchem assays: 1829 (Project Summary), 1814 (Primary HTS)]; format: functional; conditions: Homo sapiens
# Large T antigen = Large T antigen (Simian virus 40, UniProt P03070); format: functional, Betapolyomavirus macacae;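 further: Confirmatory-stage PubChem screen for compounds that inhibit SV40 T antigen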
# [15] = Luminescence Cell-Based Dose Retest to Confirm Inhibitors of Cancer Stem Cells. [Related pubchem assays (depositor defined):AID2717, AID2721]; format: functional; conditions: Homo sapiens
# [16] = target: T3, Mannose-6-phosphate isomerase (Homo sapiens, UniProt P34949); assay: inhibitors of human PMI, primary screen, biochemical, fluorescence intensity, coupled assay (AID 1209)
# T3 sequence (P34949 whole entry): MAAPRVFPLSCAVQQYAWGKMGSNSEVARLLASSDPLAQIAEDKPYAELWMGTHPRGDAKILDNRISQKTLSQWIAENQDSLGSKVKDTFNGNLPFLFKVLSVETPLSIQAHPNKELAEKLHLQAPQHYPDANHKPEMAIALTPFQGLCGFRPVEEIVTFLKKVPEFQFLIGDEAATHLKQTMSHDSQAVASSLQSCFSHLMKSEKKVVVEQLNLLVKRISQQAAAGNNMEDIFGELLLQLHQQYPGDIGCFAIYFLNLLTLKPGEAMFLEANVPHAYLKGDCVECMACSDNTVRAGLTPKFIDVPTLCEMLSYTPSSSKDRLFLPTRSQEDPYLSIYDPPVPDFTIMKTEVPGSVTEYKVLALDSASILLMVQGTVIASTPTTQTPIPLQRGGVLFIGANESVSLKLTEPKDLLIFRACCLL
# [17] = target: T4, RNA-binding protein pos-1 (Caenorhabditis elegans, UniProt G5EF15); assay: inhibitors of POS-1/mex-3 RNA binding, dose response, biochemical, fluorescence polarization (AID 1964);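 further: purified POS-1 fused to maltose binding protein made in E. coli; potency of compounds blocking POS-1 binding to fluorescent RNA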
# T4 sequence (G5EF15 whole entry): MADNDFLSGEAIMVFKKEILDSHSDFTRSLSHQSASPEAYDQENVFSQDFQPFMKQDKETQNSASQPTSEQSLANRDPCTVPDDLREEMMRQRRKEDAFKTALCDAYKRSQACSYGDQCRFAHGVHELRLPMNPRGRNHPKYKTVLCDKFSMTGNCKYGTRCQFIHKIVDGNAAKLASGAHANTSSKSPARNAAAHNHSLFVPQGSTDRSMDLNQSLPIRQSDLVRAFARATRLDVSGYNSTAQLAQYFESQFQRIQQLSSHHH
# Vero = assay: cells; format: functional; conditions: Chlorocebus sabaeus
# [18] = target: T3, Mannose-6-phosphate isomerase; assay: human PMI inhibitors, high substrate, primary screen, biochemical, fluorescence intensity, high mannose 6-phosphate (AID 1220)
# [19] = growth suppression of PTEN-null colon cells, dose response, cell-based, HCT116 PTEN knockout (AID 1047); format: functional;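 further: HCT116 colon tumor cells with PTEN knocked out; cells exposed to compound for 60 hours before readout; potency for loss of cell viability measured by luminescence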
# [20] = target: T5, Zinc finger protein mex-5 (Caenorhabditis elegans, UniProt Q9XUB2); assay: MEX-5/TCR-2 RNA interaction inhibitors, dose response, biochemical, C. elegans, fluorescence polarization (AID 1960)
# T5 sequence (Q9XUB2 whole entry): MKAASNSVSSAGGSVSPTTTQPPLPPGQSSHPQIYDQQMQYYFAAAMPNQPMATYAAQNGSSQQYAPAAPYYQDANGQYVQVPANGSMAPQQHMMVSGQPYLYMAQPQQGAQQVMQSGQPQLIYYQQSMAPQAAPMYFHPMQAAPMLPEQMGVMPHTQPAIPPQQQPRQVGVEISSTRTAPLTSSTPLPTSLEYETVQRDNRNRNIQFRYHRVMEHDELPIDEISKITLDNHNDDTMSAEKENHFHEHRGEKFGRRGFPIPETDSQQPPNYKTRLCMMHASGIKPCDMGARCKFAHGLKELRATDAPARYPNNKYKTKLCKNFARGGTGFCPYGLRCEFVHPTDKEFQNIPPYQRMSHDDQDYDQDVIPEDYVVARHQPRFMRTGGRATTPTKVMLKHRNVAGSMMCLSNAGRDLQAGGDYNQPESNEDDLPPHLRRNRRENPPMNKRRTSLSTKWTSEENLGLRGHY
# SUMO-activating enzyme [21] = target: T6, SUMO-activating enzyme (Homo sapiens, UniProt Q9UBT2); assay: inhibitors of in vitro SUMOylation cascade, primary screen, biochemical, HTRF, uHTS (AID 2006); format: protein-complex assay
# T6 sequence (Q9UBE0 whole entry): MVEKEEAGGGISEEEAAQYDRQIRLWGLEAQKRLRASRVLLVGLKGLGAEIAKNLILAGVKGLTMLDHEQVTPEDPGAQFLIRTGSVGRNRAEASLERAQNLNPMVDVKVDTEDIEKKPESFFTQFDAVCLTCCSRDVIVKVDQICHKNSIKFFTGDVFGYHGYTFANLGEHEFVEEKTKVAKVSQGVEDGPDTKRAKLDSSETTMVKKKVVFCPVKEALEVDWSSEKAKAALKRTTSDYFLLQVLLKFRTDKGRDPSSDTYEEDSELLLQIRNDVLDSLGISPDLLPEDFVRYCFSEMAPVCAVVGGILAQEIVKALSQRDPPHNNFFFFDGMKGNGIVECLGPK
# T6 sequence (Q9UBT2 whole entry): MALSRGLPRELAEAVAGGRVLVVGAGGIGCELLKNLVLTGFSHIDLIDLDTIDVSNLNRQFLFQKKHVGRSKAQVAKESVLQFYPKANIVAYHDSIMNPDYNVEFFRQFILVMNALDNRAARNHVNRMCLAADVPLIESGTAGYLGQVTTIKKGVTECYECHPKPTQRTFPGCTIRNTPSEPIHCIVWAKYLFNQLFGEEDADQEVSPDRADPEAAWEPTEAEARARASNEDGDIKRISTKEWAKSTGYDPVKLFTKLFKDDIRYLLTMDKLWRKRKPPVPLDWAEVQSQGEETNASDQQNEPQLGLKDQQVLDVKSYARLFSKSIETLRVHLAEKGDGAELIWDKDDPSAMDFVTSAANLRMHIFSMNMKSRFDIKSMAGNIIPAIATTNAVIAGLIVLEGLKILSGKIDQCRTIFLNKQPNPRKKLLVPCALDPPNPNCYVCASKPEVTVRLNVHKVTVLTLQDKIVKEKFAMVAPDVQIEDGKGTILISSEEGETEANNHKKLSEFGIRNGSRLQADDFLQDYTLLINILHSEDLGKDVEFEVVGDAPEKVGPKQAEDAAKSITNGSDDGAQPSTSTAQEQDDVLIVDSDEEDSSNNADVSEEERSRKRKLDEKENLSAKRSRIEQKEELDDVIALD
# [22] = growth suppression of beta-catenin-knockout colon cells, dose response, cell-based, HCT116, human colon tumor (AID 1045); format: functional;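 further: HCT116 colon tumor cells with beta catenin knocked out; cells exposed to compound for 60 hours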
# H9c2 = assay: cells; format: functional, cell-based; conditions: Rattus norvegicus, H9c2, Myocardium;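 further: confirmatory concentration-response retest of ultra-high-throughput screening hits for modulation of myocardial damage; cell death induced by hydrogen peroxide oxidative stress; compound pretreatment for 60 min then peroxide exposure for 2 h; potency is for protecting the cells against peroxide damage rather than for killing them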
# SUMO-activating enzyme [23] = target: T6, SUMO-activating enzyme; assay: SUMOylation inhibitor hit validation, confirmation, SUMOylation inhibitor project, biochemical, AlphaScreen (AID 2018); format: functional
# [24] = cytotoxicity toward DRD oncogenic fibroblasts, dose response, cell-based, non-viral oncogenic, luminescence (AID 1934); format: functional; conditions: Homo sapiens
# cells [25] = assay: cells
# [26] = cytotoxicity in HEK-293T cells, dose response, cytotoxicity control for TCR NF-kB inhibitor project, luminescence, T-cell screen hits (AID 489026); format: functional, cell-based;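 further: cells exposed to compound about 14 hours before the viability readout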
# BJ [27] = assay: cytotoxicity toward BJ-TERT fibroblasts, dose response, cell-based, RAS-independent, luminescence (AID 1933); format: functional; conditions: Homo sapiens
# BJ [28] = assay: cells; format: functional, cell-based; conditions: Homo sapiens
# [29] = inhibitors of intracellular T. cruzi replication, confirmation, NIH3T3 host cells, beta-gal luminescence (AID 2044); format: functional, cell-based;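 further: intracellular parasites grown in NIH/3T3 mouse fibroblasts as host cells; luminescent beta-galactosidase reporter signal from transgenic T. cruzi replicating inside host cells; inhibitors lower the luminescence signal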
# [30] = Luminescence-based dose response cell-based high throughput screening assay for cytotoxic compounds using the IEC-6 intestinal epithelial cell line. [Related pubchem assays: 1858 (Summary AID.), 1825 (Counterscreen.), 1907 (Confirmation screen.)]; format: functional
# [31] = inhibitors of SNCA 5'UTR-driven translation, confirmation, luminescence, H4 neuroglioblastoma cells, dose confirmation (AID 2454); format: functional, cell-based;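 further: H4 neuroglioblastoma cells carrying an alpha-synuclein 5'UTR luciferase reporter; potency for inhibition of the luciferase signal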
# [32] = inhibitors of firefly luciferase expression or activity, dose response, H4 neuroglioma cells, luminescence (AID 1990); format: functional, cell-based
# [33] = luciferase reporter signal reduction – luminescence, H4-C neuroglioblastoma cells, dose response (AID 2458); format: functional, cell-based;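 further: H4 neuroglioblastoma cells stably carrying a luciferase reporter gene fusion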
# [34] = inhibitors of SNCA 5'UTR-driven reporter translation, confirmation, H4 neuroglioma cells, luminescence (AID 1988); format: functional, cell-based
# cells [35] = format: functional, cell-based
# [36] = cytotoxicity toward NIH3T3 fibroblasts, dose response, counter-screen, cell-based, ATP luminescence, mouse fibroblasts (AID 2010); format: functional;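 further: cells exposed to compound for about 90 hours before reading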
# [37] = target: Induced myeloid leukemia cell differentiation protein Mcl-1 (Homo sapiens, UniProt Q07820); format: functional
# Sequence of Induced myeloid leukemia cell differentiation protein Mcl-1 (Q07820 whole entry): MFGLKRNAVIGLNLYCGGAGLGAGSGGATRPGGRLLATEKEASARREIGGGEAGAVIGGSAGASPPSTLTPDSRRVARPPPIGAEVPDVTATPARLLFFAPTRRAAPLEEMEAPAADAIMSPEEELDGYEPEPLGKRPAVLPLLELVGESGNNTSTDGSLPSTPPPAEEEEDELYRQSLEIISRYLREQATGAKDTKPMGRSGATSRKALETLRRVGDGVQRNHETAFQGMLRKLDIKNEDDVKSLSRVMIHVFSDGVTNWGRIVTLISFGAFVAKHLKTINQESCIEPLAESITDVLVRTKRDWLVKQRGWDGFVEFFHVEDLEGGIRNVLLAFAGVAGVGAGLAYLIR
# Protein Tat = target: T7, Protein Tat (Human immunodeficiency virus type 1 group M subtype B (isolate HXB2)(HIV-1), UniProt P04608); format: functional;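 further: tat binding to TAR RNA read out by fluorescence polarization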
# T7 sequence (P04608 whole entry): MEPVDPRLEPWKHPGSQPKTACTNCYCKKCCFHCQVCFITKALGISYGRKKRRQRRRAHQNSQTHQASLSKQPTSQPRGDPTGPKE
# NS3 = NS3 (Hepatitis C virus, UniProt A3EZJ3); assay: PubChem AID 2173; set-up: species or system Hepacivirus hominis
compound,measurement,setting,value
Cc1noc(/C=C/Nc2ccc(F)cc2F)c1[N+](=O)[O-],IC50,[1],27.5 µM (inactive)
same,IC50,[2],35.7 µM (inactive)
same,CC50,[3],39 µM (active)
CCOC(=O)c1oc2ccc(S(=O)(=O)N3CCC(C)CC3)cc2c1C,EC50,[4],> 79.4 µM (not active)
same,EC50,[5],> 79.4 µM (not active)
same,EC50,[6],> 79.4 µM (not active)
Cc1ccccc1C(=O)Nc1nc2c(C)csc2c(=O)s1,IC50,[7],> 50 µM (not active)
same,IC50,[8],> 50 µM (not active)
Cc1[nH]c2ccccc2c1C(=O)CCl,AC50,[9],6.78 µM (active)
same,EC50,[10],8.72 µM (inconclusive)
same,EC50,[11],0.497 µM (active)
same,IC50,[7],> 50 µM (not active)
same,IC50,[8],> 50 µM (not active)
Sc1nnc(CSCc2ccc(Cl)cc2Cl)n1-c1ccccc1,EC50,[12],> 100 µM (active)
N#CC1=C2C=Cc3ccccc3N2CCCC1=O,CC50,[3],> 40 µM (active)
same,EC50,[13],20 µM (active)
same,EC50,[14],26.4 µM (active)
same,EC50,H4,21 µM (active)
Nc1nc2ccc(N3CCOCC3)cc2s1,EC50,[4],> 79.4 µM (not active)
same,IC50,Large T antigen,7.66 µM (active)
same,EC50,[5],> 79.4 µM (not active)
same,EC50,[6],> 79.4 µM (not active)
O=C1CNC(=S)N1CCc1ccc(Cl)cc1,EC50,[12],> 100 µM (active)
CCOC(=O)c1c2ccc(OCC(=O)N/N=C/c3ccc(C)cc3)cc2n2ccccc12,AC50,[15],5.11 µM (active)
same,IC50,[16],> 50 µM (not active)
same,EC50,[17],> 300 µM (not active)
same,CC50,Vero,> 25 µM (active)
same,IC50,[18],13.1 µM (active)
same,EC50,[19],5.25 µM (active)
same,EC50,[20],> 300 µM (not active)
same,IC50,SUMO-activating enzyme [21],7.01 µM (active)
same,EC50,[22],6.24 µM (active)
same,IC50,H9c2,40.5 µM (inactive)
same,IC50,SUMO-activating enzyme [23],17.9 µM (active)
C/C=C(\C)C(=O)N[C@@H](c1ccccc1)[C@@H](O)C(=O)O[C@H]1C[C@@]2(O)[C@@H](OC(=O)c3ccccc3)C3[C@](C)(C(=O)[C@H](OC(C)=O)C(=C1C)C2(C)C)[C@H](O)C[C@H]1OC[C@@]31OC(C)=O (stereo not given in full),EC50,[24],< 0.12 µM (active)
same,EC50,cells [25],0.011 µM (active)
same,IC50,[26],> 80 µM (inactive)
same,EC50,BJ [27],0.189 µM (active)
same,EC50,BJ [28],> 150 µM (not active)
same,EC50,[29],< 0.1 µM (active)
same,IC50,[30],0.101 µM (active)
same,EC50,[31],0.11 µM (active)
same,EC50,[32],1.71 µM (active)
same,EC50,[33],0.092 µM (active)
same,EC50,[34],< 0.1 µM (active)
same,EC50,cells [35],0.19 µM (active)
same,EC50,[36],0.171 µM (active)
O=C(c1ccc2nc(-c3ccco3)c(-c3ccco3)nc2c1)N1CCN(c2ncccn2)CC1,IC50,[37],7.82 µM (active)
same,IC50,Protein Tat,7.28 µM (inconclusive)
same,IC50,NS3,11.5 µM (not active)
